{
  "source": "patent US4623641A",
  "about": "“Method of treating ulcers and erosions in the gastrointestinal system using PGI2 -methyl ester-beta cyclodextrin inclusion complexes” (Chinoin Gyogyszer es Vegyeszeti Termekek Gyara R.T., priority 1985, dated 1986)",
  "key": {"[1]": {"system": "gastric lesions on the corpus mucosa", "assay": "Gastric cytoprotective test (ethanol-induced gastric lesions, A. Robert)", "type": "in vivo, rats", "conditions": "for ED50: Rattus norvegicus, PCCD values relate to active ingredient", "protocol": "For the following tests 200-250 g female wistar rats were fasted for 24 hours before the experiment. Water was given ad libium.\nC. GASTRIC CYTOPROTECTIVE TEST\nThe following method according to the abovementioned reference was employed:\nThe cytoprotective substances were applied before giving ethanol p.o. or subcutaneously. As controls, prostacylin (PGI2) and PGE2 were used.\nEvaluation was carried out by killing the animals and then removing their stomachs. The number of gastric lesions was determined in each case. The dose of the cytoprotective compounds giving a 50% inhibiting effect was determined. The number of gastric erosions in the stomachs of animals not treated with a cytoprotective agent was designated 100%."}, "[2]": {"system": "gastric mucosa", "conditions": "in vivo; cited from earlier work"}, "[3]": {"conditions": "in vivo; cited from earlier work"}, "[4]": {"system": "stress ulcer", "assay": "Stress ulcer test (immobilized rats, ulcer index)", "type": "in vivo, female wistar rats", "conditions": "for U.I. (delta %): control = 100", "protocol": "For the following tests 200-250 g female wistar rats were fasted for 24 hours before the experiment. Water was given ad libium. A. STRESS ULCER TEST The rats were immobilized on their backs for 24 hours. After immobilization the animals were killed, and their stomachs were prepared for ulcer analysis. The gastric cytoprotective effect of PCCD was tested by administering it in the following way: Case A: At 0, 6th, 12th and 18th hour after the immobilization. Administrations were carried out both ip and per os. In both cases the animals were killed and their stomachs prepared for ulcer analysis. In each experiment the ulcer index was calculated. In the calculation of the U.I., each mm^2 of ulcer or erosion is 1 point. Bleeding results in an additional 5 points. Perforation means an additional 10 points. The number of animals is (n=20) in each group. Mean (%)±S.E.M. is calculated. Statistical analysis is done according to the Student's T-Test. Significance level, p is less than 0.05."}, "[5]": {"assay": "Stability on oral application (acidic pH of the stomach)", "type": "physicochemical", "conditions": "oral administration"}, "[6]": {"conditions": "100 micrograms/kg i.p., PCCD data calculated for active ingredient"}},
  "data": [
    {"smiles": "CCCCC[C@H](O)/C=C/[C@H]1[C@H](O)CC(=O)[C@@H]1C/C=C\\CCCC(=O)O", "note": "[PGE2]", "values": [
      {"measurement": "ED50", "setting": "[1]; po, orally", "result": 0.03, "unit": "mg/kg"},
      {"measurement": "ED50", "setting": "[1]; sc, subcutaneously", "result": 0.1, "unit": "mg/kg"},
      {"measurement": "cytoprotective effect compared with PGI2", "setting": "[1]; oral application", "result": "more effective"},
      {"measurement": "decreasing the blood loss of the gastric mucosa induced by non-steroidal antiphlogistics", "setting": "[2]", "result": "significantly effective"},
      {"measurement": "therapy of peptic ulcers", "setting": "[2]", "result": "significantly effective"},
      {"measurement": "side effects", "setting": "[3]", "result": "diarrhogen side effects"}
    ]},
    {"smiles": "COc1ccc2c(c1)c(CC(=O)O)c(C)n2C(=O)c1ccc(Cl)cc1", "note": "[indomethacin]", "values": [
      {"measurement": "side effects", "setting": "[3]", "result": "ulcerogenic side effects"}
    ]},
    {"smiles": "OC[C@H]1O[C@@H]2O[C@H]3[C@H](O)[C@@H](O)[C@@H](O[C@H]4[C@H](O)[C@@H](O)[C@@H](O[C@H]5[C@H](O)[C@@H](O)[C@@H](O[C@H]6[C@H](O)[C@@H](O)[C@@H](O[C@H]7[C@H](O)[C@@H](O)[C@@H](O[C@H]8[C@H](O)[C@@H](O)[C@@H](O[C@H]1[C@H](O)[C@H]2O)O[C@@H]8CO)O[C@@H]7CO)O[C@@H]6CO)O[C@@H]5CO)O[C@@H]4CO)O[C@@H]3CO", "note": "[Beta-cyclodextrin]", "values": [
      {"measurement": "U.I. ± S.E.M.", "setting": "[4]; 5 mg/kg i.p.", "result": "6.8 ± 2.15"},
      {"measurement": "U.I. (delta %)", "setting": "[4]; 5 mg/kg i.p.", "result": 77.9, "unit": "%"}
    ]},
    {"smiles": "CCCCC[C@H](O)/C=C/[C@@H]1[C@H]2C/C(=C/CCCC(=O)O)O[C@H]2C[C@H]1O", "note": "[PGI2, prostacyclin]", "values": [
      {"measurement": "U.I. ± S.E.M.", "setting": "[4]; [6]", "result": "5.4 ± 1.54"},
      {"measurement": "U.I. (delta %)", "setting": "[4]; [6]", "result": 70.0, "unit": "%"},
      {"measurement": "ED50", "setting": "[1]; po, orally", "result": 1.8, "unit": "mg/kg"},
      {"measurement": "ED50", "setting": "[1]; sc, subcutaneously", "result": 0.04, "unit": "mg/kg"},
      {"measurement": "cytoprotective effect compared with PGE2", "setting": "[1]; administered subcutaneously", "result": "stronger cytoprotective effect than PGE2"},
      {"measurement": "stability compared with PGE2", "setting": "[5]", "result": "more unstable than is PGE2"}
    ]},
    {"smiles": "CN/C(=N/CCSCc1nc[nH]c1C)NC#N", "note": "[Cimetidine]", "values": [
      {"measurement": "U.I. ± S.E.M.", "setting": "[4]; 10 mg/kg i.p.", "result": "3.0 ± 1.08"},
      {"measurement": "U.I. (delta %)", "setting": "[4]; 10 mg/kg i.p.", "result": 38.9, "unit": "%"},
      {"measurement": "U.I. ± S.E.M.", "setting": "[4]; 10 mg/kg p.o.", "result": "2.82 ± 1.36"},
      {"measurement": "U.I. (delta %)", "setting": "[4]; 10 mg/kg p.o.", "result": 36.7, "unit": "%"}
    ]}
  ]
}
